Data set [1] can be described thus: Antioxidant activity assessed as DPPH radical scavenging activity. It is filed as functional. A general note: Loss of DPPH colour is used to gauge radical scavenging.
Data set [2] is described as follows: Antioxidant activity assessed as H2O2 radical scavenging activity. It is filed as functional.
The nature of data set [3]: Antioxidant activity assessed as NO radical scavenging activity. It is filed as functional.
Data set [4] has as its target Vascular endothelial growth factor receptor 2 (Homo sapiens, UniProt P35968).
The next data set concerns MCF7. Put plainly: Antiproliferative activity against human MCF7 cells. In kind it is functional, cell-based.
Another data set concerns HepG2. In words: Antiproliferative activity against human HepG2 cells. It is filed as functional, cell-based.
For a further data set, the system named is Pseudomonas aeruginosa. In words: Antibacterial activity against Pseudomonas aeruginosa. It is filed as functional.
A further data set has as its system Staphylococcus aureus. In words: Antibacterial activity against Staphylococcus aureus. In kind it is functional.
Data set [5] relates to Escherichia coli. Put plainly: Antibacterial activity against Escherichia coli W3110. It is filed as functional.
Data set [6] can be described thus: Inhibition of Escherichia coli topoisomerase 4.
The nature of data set [7]: Dissociation constant, pKa of the compound. In kind it is physicochemical.
The subject of a further data set is Streptococcus pneumoniae. In words: Antibacterial activity against Streptococcus pneumoniae. It is filed as functional.
The next data set relates to Papillary muscle. In words: Positive inotropic activity in ferret papillary muscle assessed as contractile force measured as CFC20. In kind it is functional, Mustela putorius furo.
Another data set concerns Mesenteric vein. Put plainly: Vasorelaxant activity in dog mesenteric veins. In kind it is functional, tissue-based. The note with it: Canis lupus familiaris.
The next data set has as its system Coronary artery. Put plainly: Vasorelaxant activity in dog coronary arteries. The note with it: Canis lupus familiaris. It is filed as functional, tissue-based.
Data set [8] has as its target 3',5'-cyclic phosphodiesterase. In words: Inhibition of cAMP-specific 3',5'-cyclic phosphodiesterase (unknown origin). It is filed as protein assay, Homo sapiens.
Data set [9] can be described thus: Inhibition of cGMP-dependent 3',5'-cyclic phosphodiesterase (unknown origin). Set-up: species or system Homo sapiens.
Data set [10] in a line: Inhibition of ALR2 (unknown origin). On the set-up: species or system Homo sapiens.
Data set [11] is described as follows: Inhibition of ALR1 (unknown origin) relative to control. On the set-up: concentration or dose not given beside the values. The note with it: Homo sapiens; concentration not given here.
A short description of data set [12]: Antioxidant activity assessed as DPPH radical scavenging activity at 100 uM. It is filed as functional.
A short description of data set [13]: Inhibition of lipid peroxidation at 100 uM by measuring MDA concentration. In kind it is functional.
Data set [14] deals with Escherichia coli. In words: Antibacterial activity against Escherichia coli. In kind it is functional.
In another data set the test system is Candida albicans. Put plainly: Antifungal activity against Candida albicans. In kind it is functional.
In a further data set the test system is Enterococcus faecalis. Put plainly: Antibacterial activity against Enterococcus faecalis. It is filed as functional.
In a further data set the test system is Klebsiella pneumoniae. Put plainly: Antibacterial activity against Klebsiella pneumoniae. It is filed as functional.
Another data set relates to Aspergillus fumigatus. Put plainly: Antifungal activity against Aspergillus fumigatus. It is filed as functional.
Data set [15] has as its system Mycobacterium tuberculosis. Put plainly: Antimycobacterial activity against Mycobacterium tuberculosis H37Rv. In kind it is functional.

Values after ≈ are worked out from the molar mass of the structure shown. Some results are limits rather than exact numbers.

Chain of Vascular endothelial growth factor receptor 2 (P35968 whole entry): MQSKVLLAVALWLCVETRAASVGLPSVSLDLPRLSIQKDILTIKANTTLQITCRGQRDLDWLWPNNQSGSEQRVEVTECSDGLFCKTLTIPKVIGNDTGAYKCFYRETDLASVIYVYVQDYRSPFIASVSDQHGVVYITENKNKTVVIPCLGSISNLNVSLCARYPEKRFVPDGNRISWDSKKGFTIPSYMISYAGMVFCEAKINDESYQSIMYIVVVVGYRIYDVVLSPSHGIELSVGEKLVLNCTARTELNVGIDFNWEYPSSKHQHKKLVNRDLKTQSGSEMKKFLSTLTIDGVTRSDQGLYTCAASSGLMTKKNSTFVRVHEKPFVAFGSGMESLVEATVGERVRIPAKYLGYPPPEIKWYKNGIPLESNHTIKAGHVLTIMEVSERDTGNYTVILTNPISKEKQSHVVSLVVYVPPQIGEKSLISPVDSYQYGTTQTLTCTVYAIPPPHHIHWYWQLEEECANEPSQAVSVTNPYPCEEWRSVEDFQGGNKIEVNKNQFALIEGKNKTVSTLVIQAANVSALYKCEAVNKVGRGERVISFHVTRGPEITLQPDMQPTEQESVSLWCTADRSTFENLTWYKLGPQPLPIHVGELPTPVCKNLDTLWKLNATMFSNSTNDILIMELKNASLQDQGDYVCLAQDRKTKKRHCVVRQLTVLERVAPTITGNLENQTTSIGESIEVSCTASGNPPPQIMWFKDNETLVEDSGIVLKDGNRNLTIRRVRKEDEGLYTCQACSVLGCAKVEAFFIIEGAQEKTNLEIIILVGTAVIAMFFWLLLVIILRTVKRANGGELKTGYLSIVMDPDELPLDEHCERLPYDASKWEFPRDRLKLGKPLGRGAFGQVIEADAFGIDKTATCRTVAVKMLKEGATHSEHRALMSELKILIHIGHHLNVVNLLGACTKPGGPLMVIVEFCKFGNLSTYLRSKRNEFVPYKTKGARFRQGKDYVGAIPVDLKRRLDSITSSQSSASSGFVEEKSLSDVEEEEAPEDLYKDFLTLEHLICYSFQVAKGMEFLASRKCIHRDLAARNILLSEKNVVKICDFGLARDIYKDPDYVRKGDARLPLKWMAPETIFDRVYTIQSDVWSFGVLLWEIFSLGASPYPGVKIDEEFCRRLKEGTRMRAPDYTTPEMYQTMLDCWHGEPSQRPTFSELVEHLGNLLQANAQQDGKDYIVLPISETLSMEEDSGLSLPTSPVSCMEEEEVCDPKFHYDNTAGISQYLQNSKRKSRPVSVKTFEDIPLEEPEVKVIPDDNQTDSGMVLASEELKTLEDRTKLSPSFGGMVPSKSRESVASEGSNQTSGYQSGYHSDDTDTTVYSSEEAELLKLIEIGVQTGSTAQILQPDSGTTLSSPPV

Broadly, the IC50 is the midpoint of a concentration-inhibition curve. As for `Cc1nc2ccccc2n(CC(=O)N/N=C/c2ccc(OCCn3cc(CN4CCCC4)nn3)cc2)c1=O`, the IC50 in data set [1] worked out at 27.17 µg/mL (≈ 52.8 µM); in data set [2], 56.81 µg/mL (≈ 110 µM); in [3], 53.19 µg/mL (≈ 103 µM).

On to `Cc1nc2ccccc2n(CC(=O)N/N=C/c2ccc(OCCn3cc(CN4CCOCC4)nn3)cc2)c1=O`, for which the results for the IC50 in data set [1], in [2] and in [3] were 25 µg/mL (≈ 47.1 µM), 49.01 µg/mL (≈ 92.4 µM) and 47.16 µg/mL (≈ 88.9 µM), respectively.

With `Cc1ccc(O)c(NC(=O)c2ccc(NC(=O)Cn3c(=O)c4nncn4c4ccccc43)cc2)c1`, the IC50 in [4] stood at 0.0039 µM; in the data set with MCF7 it was 8.1 µM; in the data set on HepG2, 7.8 µM.

Broadly, the MIC is the smallest concentration in the dilution series that meets the test's criterion for growth inhibition. As usually defined, the pKa is the pH at which an ionisable group is half protonated. On to `N#Cc1ccc2ccc(=O)n(CCN3CC[C@H](NCc4cc5c(cn4)OCCO5)[C@H](F)C3)c2c1`, for which the MIC is over 8 µg/mL against Pseudomonas aeruginosa, 0.06 µg/mL (≈ 0.129 µM) against Staphylococcus aureus, 4 µg/mL (≈ 8.63 µM) against Escherichia coli [5] and 0.13 µg/mL (≈ 0.28 µM) in the data set on Streptococcus pneumoniae. The same compound had an IC50 in [6] of 0.048 µM. In data set [7], the pKa worked out at 4.47.

In general, EC50 refers to the concentration at which the effect is half-maximal. Turning to `CCc1nc(C)c2c(O)nc3ccccc3n12`, in the data set with Papillary muscle, the Activity stood at 0.2 µM. In addition, the EC50 in the data set on Mesenteric vein amounted to 0.8 µM; in the data set with Coronary artery, 1.7 µM. Also, the concentration for half-maximal inhibition (IC50) was found to be 2 µM in data set [8] and 0.4 µM in data set [9].

As to `N#Cc1ccc2c(c1)N(CCN1CCC(NCc3ccc4c(n3)NC(=O)CO4)CC1)C(=O)CO2`, the MIC against Pseudomonas aeruginosa came to 2 µg/mL (≈ 4.32 µM); in the data set with Staphylococcus aureus it was 0.13 µg/mL (≈ 0.281 µM); against Escherichia coli [5] it was 0.25 µg/mL (≈ 0.541 µM); in the data set on Streptococcus pneumoniae, 0.5 µg/mL (≈ 1.08 µM). Moreover, the midpoint of inhibition in data set [6], the IC50, lay at 0.0032 µM.

As usually defined, the inhibition is the drop in the measured response relative to a control, in per cent. `O=C(O)Cn1c(=O)c(Oc2ccc(O)cc2)nc2cc(F)ccc21` gave a concentration for half-maximal inhibition (IC50) in [10] of 0.0196 µM. The figures for the inhibition in data set [11] and in data set [13] were 11.8% and 14.3%, respectively. For the same compound, the Activity in data set [12] was 23.7%.

With `O=C(Cn1c(=O)c2nncn2c2ccccc21)Nc1ccc(C(=O)Nc2cc(Cl)ccc2Cl)cc1`, the IC50 in [4] was 0.0048 µM; with MCF7, 10.3 µM; in the data set on HepG2, 8.4 µM.

Turning to `CCc1ncc2c(O)nc3cccnc3n12`, the Activity in the data set on Papillary muscle came out at 0.1 µM. Besides, the EC50 in the data set on Mesenteric vein was determined as 0.5 µM; with Coronary artery it was 0.3 µM. For the same compound, the IC50 in data set [8] is 1 µM; in [9] it was 7 µM.

As to `Cc1ccc(-n2cc(COc3ccc(/C=N/NC(=O)Cn4c(=O)c(C)nc5ccccc54)cc3)nn2)cc1`, the IC50 in data set [1] was 26.04 µg/mL (≈ 51.3 µM); in data set [2], 52.08 µg/mL (≈ 103 µM); in data set [3], 48.07 µg/mL (≈ 94.7 µM).

Consider `Oc1nc2cccnc2n2ccnc12`, for which the Activity in the data set on Papillary muscle is 2.2 µM. Further, the EC50 was 10 µM in the data set with Mesenteric vein and 11 µM with Coronary artery. Also, the IC50 in data set [8] was determined as 44 µM; in [9], 27 µM.

`C/C(=N\NC(=O)Cn1c(=O)c(C)nc2ccccc21)c1ccc(O)cc1`: the MIC against Escherichia coli [14] turned out to be 125 µg/mL (≈ 357 µM); in the data set on Staphylococcus aureus it was 250 µg/mL (≈ 714 µM); in the data set on Candida albicans, 4 µg/mL (≈ 11.4 µM); against Enterococcus faecalis, 16.1 µg/mL (≈ 45.8 µM); in the data set on Klebsiella pneumoniae, 125 µg/mL (≈ 357 µM); against Aspergillus fumigatus, 4 µg/mL (≈ 11.4 µM). For the same compound, the minimum inhibitory concentration (MIC) in data set [15] is 25 µg/mL (≈ 71.4 µM).

As for `CCc1nccn1-c1ncnc2c1nc(O)c1cnc(CC)n12`, in the data set with Papillary muscle, the Activity was over 100 µM. Moreover, the EC50 with Mesenteric vein stood at 23 µM; in the data set on Coronary artery, 59 µM. Also, the IC50 in [8] is over 100 µM; in [9] it was 14 µM.

As for `Cc1nc2ccccc2n(CC(=O)N/N=C/c2ccc(OCCn3cc(CN4CCCCC4)nn3)cc2)c1=O`, the IC50 in data set [1] came out at 28.24 µg/mL (≈ 53.4 µM); in [2], 54.34 µg/mL (≈ 103 µM); in data set [3] it was 52.08 µg/mL (≈ 98.5 µM).

Consider `COc1ccc2ncc(=O)n(CCN3CCC(NCc4cc5c(cn4)OCCO5)CC3)c2c1`, for which the MIC is 4 µg/mL (≈ 8.86 µM) in the data set on Pseudomonas aeruginosa, 0.02 µg/mL (≈ 0.0443 µM) against Staphylococcus aureus, 0.5 µg/mL (≈ 1.11 µM) against Escherichia coli [5] and 0.06 µg/mL (≈ 0.133 µM) with Streptococcus pneumoniae. Further, half-maximal inhibition in data set [6] (IC50) required 0.005 µM.
